Results from the supplement of paper PMC10307832.

Compound: CC(C)(C)c1cc(NC(=O)Nc2ccc(-c3cn4c(n3)sc3cc(OCCN5CCOCC5)ccc34)cc2)no1 [Quizartinib] + C[C@@H](Oc1cc(-c2cnn(C3CCNCC3)c2)cnc1N)c1c(Cl)ccc(F)c1Cl [Crizotinib] (partner 1 µM)
Experiment: relative viability (nuclei count vs DMSO), 5 days (fraction); higher = more cells survive
Conditions: first compound 0.1 µM
How it was run: (§1)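 Medians of duplicate plates are given as relative viability. That measure is the nuclei count in treated wells divided by the count in vehicle wells. Counts were taken on 4× images of lung cancer cell lines in 1536-well plates, 5 days after pin-tool dosing the day after seeding with one drug alone or a fixed anchor-drug dose plus five library-drug doses (not always all listed) in √10 steps.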

Cell Line	relative viability
LU99A	0.507
NCI-H2023	0.543
NCI-H2228	0.429
NCI-H1437	0.608
NCI-H2009	1
HCC-366	0.467
EBC-1	0.211
LCLC-103H	1.02
IA-LM	0.623
NCI-H2170	1.19
A549	0.686
NCI-H441	0.969
NCI-H1650	0.881
ChaGo-K-1	1.19

Compound: CC(C)(C)c1cc(NC(=O)Nc2ccc(-c3cn4c(n3)sc3cc(OCCN5CCOCC5)ccc34)cc2)no1 [Quizartinib] + C[C@]1(O)C[C@@H](c2nc(-c3ccc4ccc(-c5ccccc5)nc4c3)c3c(N)nccn32)C1 [Linsitinib] (partner 1 µM)
Experiment: as above
Conditions: first compound 0.001 µM
How it was run: as §1

Cell Line	relative viability
EKVX	0.92
EPLC-272H	1.01
NCI-H520	0.862
NCI-H1563	1.01
NCI-H650	0.807
RERF-LC-KJ	0.79
HCC-827	0.99
NCI-H2087	0.857
SK-MES-1	1.03
NCI-H1299	0.952
NCI-H1651	0.858
UMC-11	1.05
NCI-H1355	0.804
H3255	0.854
NCI-H1792	0.334
NCI-H647	1.17

Cell Line	relative viability
Calu-6	0.975
NCI-H1703	0.832
LXF-289	0.899
LU99A	0.509
NCI-H2023	0.556
NCI-H2228	0.736
NCI-H1437	0.954
NCI-H1395	1.06
NCI-H2009	0.917
HCC-366	0.501
EBC-1	0.801
LCLC-103H	0.946
IA-LM	0.518
NCI-H1793	0.833
NCI-H441	0.357

Same assay, conditions: first compound 0.003162 µM

Cell Line	relative viability
EKVX	1
EPLC-272H	1.38
NCI-H520	0.992
NCI-H1563	1.04
NCI-H650	0.787
RERF-LC-KJ	0.878
HCC-827	0.924
NCI-H2087	0.98
SK-MES-1	1
NCI-H1299	0.95
NCI-H1651	0.946
UMC-11	0.964
NCI-H1355	0.817
H3255	0.826
NCI-H1792	0.496
NCI-H647	1.07
Calu-6	0.884

Cell Line	relative viability
LCLC-97TM1	0.148
NCI-H1703	0.456
LXF-289	0.944
LU99A	0.504
NCI-H2023	0.585
NCI-H2228	0.699
NCI-H1437	0.897
NCI-H1395	1.37
NCI-H2009	1.13
HCC-366	0.695
EBC-1	0.972
LCLC-103H	1.05
IA-LM	0.657
A549	0.49
NCI-H1793	0.896
NCI-H441	0.645

Same assay, conditions: first compound 0.01 µM

Cell Line	relative viability
EKVX	1.02
EPLC-272H	1.32
NCI-H520	0.888
NCI-H1563	1.17
NCI-H650	0.798
RERF-LC-KJ	0.941
HCC-827	1.05
NCI-H2087	1.06
SK-MES-1	1.14
NCI-H1299	0.987
NCI-H1651	1.06
UMC-11	1.06
NCI-H1355	0.827
H3255	1.01
NCI-H1792	0.602
NCI-H647	1.26
Calu-6	0.944

Cell Line	relative viability
LCLC-97TM1	0.185
NCI-H1703	0.165
LXF-289	1.02
LU99A	0.628
NCI-H2023	0.564
NCI-H2228	0.808
NCI-H1437	1.01
NCI-H1395	0.985
NCI-H2009	1.24
HCC-366	0.656
EBC-1	0.956
LCLC-103H	1.06
IA-LM	0.652
A549	0.61
NCI-H1793	0.843
NCI-H441	0.607

Same assay, conditions: first compound 0.03162 µM

Cell Line	relative viability
EKVX	0.954
EPLC-272H	1.32
NCI-H520	0.934
NCI-H650	0.694
RERF-LC-KJ	0.843
HCC-827	0.962
NCI-H2087	0.935
SK-MES-1	0.975
NCI-H1299	1.02
NCI-H1651	0.727
UMC-11	0.914
NCI-H1355	0.799
H3255	0.896
NCI-H1792	0.466
NCI-H647	1.18
Calu-6	0.959

Cell Line	relative viability
LCLC-97TM1	0.174
NCI-H1703	0.162
LXF-289	0.958
LU99A	0.497
NCI-H2023	0.454
NCI-H2228	0.534
NCI-H1437	0.898
NCI-H1395	1.04
NCI-H2009	1.01
HCC-366	0.615
EBC-1	0.989
LCLC-103H	1.2
IA-LM	0.724
A549	0.611
NCI-H1793	0.885
NCI-H441	0.51

Same assay, conditions: first compound 0.1 µM

Cell Line	relative viability
EKVX	1.1
EPLC-272H	1.14
NCI-H520	0.859
NCI-H1563	0.972
NCI-H650	1.15
RERF-LC-KJ	0.92
HCC-827	0.994
NCI-H2087	0.705
SK-MES-1	0.996
NCI-H1299	1.01
NCI-H1651	0.93
UMC-11	1.02
NCI-H1355	0.842
